Test results as given in patent publication US8912121B2, “Herbicidal compositions comprising 4-amino-3-chloro-5-fluoro-6-(4-chloro-2-fluoro-3-methoxyphenyl)pyridine-2-carboxylic acid or a derivative thereof and certain PS II inhibitors” (Dow Agrosciences LLC, priority 2012, dated 2014).

Experiments:
[1] = test system: GALAP (Galium aparine, catchweed bedstraw); experiment: Postemergence herbicidal activity of mixtures in cereal crops, greenhouse; assay type: in vivo, Galium aparine L.
Experimental: (§1) Seeds of the desired test plant species were planted in Sun Gro MetroMix® 306 planting mixture, which typically has a pH of 6.0 to 6.8 and an organic matter content of about 30 percent, in plastic pots with a surface area of 103.2 square centimeters (cm^2). When required to ensure good germination and healthy plants, a fungicide treatment and/or other chemical or physical treatment was applied. The plants were grown for 7-36 days in a greenhouse with an approximate 14 hour photoperiod which was maintained at about 18° C. during the day and about 17° C. during the night. Nutrients and water were added on a regular basis and supplemental lighting was provided with overhead metal halide 1000-Watt lamps as necessary. The plants were employed for testing when they reached the second or third true leaf stage.
(§2) Treatments consisted of the benzyl ester of 4-amino-3-chloro-5-fluoro-6-(4-chloro-2-fluoro-3-methoxy-phenyl)pyridine-2-carboxylic acid (Compound A), formulated as an SC, a second cereal herbicide alone and then both in combination.
(§3) Other herbicidal components were applied on an active ingredient basis and included PSII-inhibiting herbicides.
(§4) Measured aliquots of benzyl ester of 4-amino-3-chloro-5-fluoro-6-(4-chloro-2-fluoro-3-methoxy-phenyl)pyridine-2-carboxylic acid (Compound A) were placed in 25 milliliter (mL) glass vials and diluted in a volume of 1.25% (v/v) Agri-Dex® crop oil concentrate to obtain stock solutions. Compound requirements are based upon a 12 mL application volume at a rate of 187 liters per hectare (L/ha). Spray solutions of the second cereal herbicide and experimental compound mixtures were prepared by adding the stock solutions to the appropriate amount of dilution solution to form 12 mL spray solution with active ingredients in two- and three-way combinations. Formulated compounds were applied to the plant material with an overhead Mandel track sprayer equipped with an 8002E nozzle calibrated to deliver 187 L/ha over an application area of 0.503 square meters (m^2) at a spray height of 18 inches (46 cm) above average plant canopy. Control plants were sprayed in the same manner with the solvent blank.
(§5) The treated plants and control plants were placed in a greenhouse as described above and watered by sub-irrigation to prevent wash-off of the test compounds. After 20-22 days, the condition of the test plants as compared with that of the control plants was determined visually and scored on a scale of 0 to 100 percent where 0 corresponds to no injury and 100 corresponds to complete kill.
(§6) Colby's equation was used to determine the herbicidal effects expected from the mixtures (Colby, S. R. 1967. Calculation of the synergistic and antagonistic response of herbicide combinations. Weeds 15:20-22).
(§7) The following equation was used to calculate the expected activity of mixtures containing two active ingredients, A and B: Expected=A+B−(A×B/100)

[2] = test system: ECHCO (Echinochloa colonum, junglerice); experiment: Pre-emergence soil-applied mixtures, greenhouse; assay type: in vivo, Echinochloa colonum (L.) Link
Source text: Seeds or nutlets of the desired test plant species were planted in a soil matrix prepared by mixing a loam soil (32 percent silt, 23 percent clay, and 45 percent sand, with a pH of about 6.5 and an organic matter content of about 1.9 percent) and calcareous grit in an 80 to 20 ratio. The soil matrix was contained in plastic pots with a volume of 1 quart and a surface area of 83.6 square centimeters (cm^2).
Treatments consisted of the benzyl ester of 4-amino-3-chloro-5-fluoro-6-(4-chloro-2-fluoro-3-methoxy-phenyl)pyridine-2-carboxylic acid (compound A) formulated as an SC (suspension concentrate) and various herbicidal components alone and in combination. Forms of compound A were applied on an acid equivalent basis.
Other herbicidal components were applied on an acid equivalent or active ingredient basis and included the PSII-inhibiting herbicides, atrazine formulated as Atrazine® 90WDG, metribuzin formulated as Metribuzin 75DF, simazine formulated as Princep Caliber 90, tebuthiuron formulated as Spike 80DF, cyanazine (technical grade material), hexazinone (technical grade material), linuron (technical grade material), terbuthylazine (technical grade material), and diuron formulated as Diuron 4L.
Treatment requirements were calculated based upon the rates being tested, the concentration of active ingredient or acid equivalent in the formulation, and a 12 mL application volume at a rate of 187 L/ha.
For treatments comprised of formulated compounds, measured amounts of compounds were placed individually in 25 mL glass vials and diluted in a volume of 1.25% (v/v) Agri-Dex® crop oil concentrate (COC) to obtain 12× stock solutions. […]
For treatments comprised of formulated and technical compounds, weighed amounts of the technical materials can be placed individually in 25 mL glass vials and dissolved in a volume of 97:3 (v/v) acetone/DMSO to obtain 12× stock solutions, and measured amounts of the formulated compounds can be placed individually in 25 mL glass vials and diluted in a volume of 1.5% (v/v) COC or water to obtain 12× stock solutions. […]

[3] = test system: LAMPU (Lamium purpureum, purple deadnettle); experiment: Postemergence herbicidal activity of mixtures in cereal crops, greenhouse; assay type: in vivo, Lamium purpureum L.
Experimental: as §1, §2, §3, §4, §5, §6, §7

[4] = test system: KCHSC (Kochia scoparia, kochia); experiment: as above; assay type: in vivo, Kochia scoparia (L.) Schrad.
Experimental: as §1, §2, §3, §4, §5, §6, §7

[5] = Compound A Benzyl Ester 5 g ai/ha
[6] = Compound A Benzyl Ester 10 g ai/ha
[7] = Compound A Benzyl Ester 2.5 g ai/ha

## COc1c(Cl)ccc(-c2nc(C(=O)OCc3ccccc3)c(Cl)c(N)c2F)c1F [Compound A Benzyl Ester, benzyl ester of 4-amino-3-chloro-5-fluoro-6-(4-chloro-2-fluoro-3-methoxy-phenyl)pyridine-2-carboxylic acid]
[1]; [5]
  Visual Weed Control (%) - 21 DAA GALAP Obs: 66%
[1]; [6]
  Visual Weed Control (%) - 21 DAA GALAP Obs: 77%
[2]; Compound A Benzyl Ester 16 g ae/ha
  Visual Weed Control (%)-29 DAA ECHCO Obs: 0%
[2]; Compound A Benzyl Ester 32 g ae/ha
  Visual Weed Control (%)-29 DAA ECHCO Obs: 5%
[3]; [7]
  Visual Weed Control (%)-21 DAA LAMPU Obs: 80%
[3]; Compound A Benzyl Ester 2.5 g ai/ha, Table 22
  Visual Weed Control (%)-21 DAA LAMPU Obs: 80%
[3]; [5]
  Visual Weed Control (%)-21 DAA LAMPU Obs: 86%
[3]; Compound A Benzyl Ester 5 g ai/ha, Table 22
  Visual Weed Control (%)-21 DAA LAMPU Obs: 86%
[3]; [6]
  Visual Weed Control (%)-21 DAA LAMPU Obs: 94%
[3]; Compound A Benzyl Ester 10 g ai/ha, Table 22
  Visual Weed Control (%)-21 DAA LAMPU Obs: 94%
[4]; [7]
  Visual Weed Control (%)-21 DAA KCHSC Obs: 20%
[4]; [5]
  Visual Weed Control (%)-21 DAA KCHSC Obs: 41%
[4]; [6]
  Visual Weed Control (%)-21 DAA KCHSC Obs: 62%
